Data: patent US11987564B2, “PTPRD inhibitors and uses thereof” (United States Government as represented by the Department …, priority 2021, dated 2024)

Assays:
[1] = biological target: PTPRS (Homo sapiens, UniProt Q13332); assay: pNPP hydrolysis by recombinant PTPRS phosphatase; type: biochemical
From the text: (§1) Human […] ([…]-pY-[…]) phosphopeptide (Pierce/ThermoFisher) were synthesized.

[2] = biological target: T1, PTPRJ (Homo sapiens, UniProt Q12913); assay: pNPP hydrolysis by PTPRJ phosphatase; type: biochemical
T1 construct: purchased
T1 sequence (Q12913 36-1337): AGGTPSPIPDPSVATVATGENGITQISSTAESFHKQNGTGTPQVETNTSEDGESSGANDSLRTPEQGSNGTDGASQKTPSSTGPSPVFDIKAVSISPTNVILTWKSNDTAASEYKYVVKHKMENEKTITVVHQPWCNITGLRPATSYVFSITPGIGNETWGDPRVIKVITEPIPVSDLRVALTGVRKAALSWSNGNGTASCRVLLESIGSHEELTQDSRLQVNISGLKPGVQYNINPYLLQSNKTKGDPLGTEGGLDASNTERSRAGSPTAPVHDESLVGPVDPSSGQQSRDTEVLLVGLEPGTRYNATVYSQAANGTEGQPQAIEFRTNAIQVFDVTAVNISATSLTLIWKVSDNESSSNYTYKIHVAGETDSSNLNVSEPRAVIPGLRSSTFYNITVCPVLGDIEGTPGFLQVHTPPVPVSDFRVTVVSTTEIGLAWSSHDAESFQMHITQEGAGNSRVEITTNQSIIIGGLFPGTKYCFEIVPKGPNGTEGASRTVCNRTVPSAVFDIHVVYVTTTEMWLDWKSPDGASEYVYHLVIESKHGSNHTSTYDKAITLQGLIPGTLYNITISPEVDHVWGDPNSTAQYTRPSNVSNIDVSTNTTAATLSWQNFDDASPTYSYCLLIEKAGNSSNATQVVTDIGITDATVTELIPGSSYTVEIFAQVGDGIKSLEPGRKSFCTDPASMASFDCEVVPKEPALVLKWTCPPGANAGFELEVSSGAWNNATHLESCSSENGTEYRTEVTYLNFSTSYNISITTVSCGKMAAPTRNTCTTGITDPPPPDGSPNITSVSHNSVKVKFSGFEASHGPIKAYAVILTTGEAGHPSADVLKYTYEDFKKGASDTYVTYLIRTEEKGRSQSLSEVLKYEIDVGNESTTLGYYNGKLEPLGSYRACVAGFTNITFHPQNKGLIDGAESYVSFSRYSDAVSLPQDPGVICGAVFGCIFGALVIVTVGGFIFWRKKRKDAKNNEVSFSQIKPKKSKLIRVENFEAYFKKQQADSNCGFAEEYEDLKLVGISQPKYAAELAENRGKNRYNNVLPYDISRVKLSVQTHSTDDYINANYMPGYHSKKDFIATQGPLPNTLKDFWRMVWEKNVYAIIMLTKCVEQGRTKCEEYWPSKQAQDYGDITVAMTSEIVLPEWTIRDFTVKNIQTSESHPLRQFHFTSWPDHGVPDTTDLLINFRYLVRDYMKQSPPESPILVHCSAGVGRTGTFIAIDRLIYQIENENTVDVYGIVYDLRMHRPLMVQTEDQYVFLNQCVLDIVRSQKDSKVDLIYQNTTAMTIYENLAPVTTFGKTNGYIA
From the text: as §1

[3] = biological target: T2, PTPN1 (PTP1B) (Homo sapiens, UniProt P18031); assay: pNPP hydrolysis by PTPN1 (PTP1B) phosphatase; type: biochemical; details: untitled table after Table 4; mean, SEM in wrapped line
T2 construct: purchased
T2 sequence (P18031 1-435): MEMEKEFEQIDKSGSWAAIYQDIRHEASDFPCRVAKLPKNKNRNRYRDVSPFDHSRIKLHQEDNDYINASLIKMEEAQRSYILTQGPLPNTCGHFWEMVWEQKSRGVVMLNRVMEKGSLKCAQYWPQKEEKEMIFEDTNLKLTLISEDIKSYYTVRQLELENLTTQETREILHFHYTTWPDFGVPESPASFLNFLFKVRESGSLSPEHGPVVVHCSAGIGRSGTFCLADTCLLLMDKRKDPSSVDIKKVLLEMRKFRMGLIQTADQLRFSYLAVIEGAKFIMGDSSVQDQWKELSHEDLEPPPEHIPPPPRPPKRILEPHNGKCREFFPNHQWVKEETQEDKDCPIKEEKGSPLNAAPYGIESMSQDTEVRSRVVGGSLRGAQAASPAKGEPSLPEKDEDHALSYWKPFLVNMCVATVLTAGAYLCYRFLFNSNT

[4] = biological target: recombinant PTPRD (Homo sapiens, UniProt P23468); assay: pNPP hydrolysis by recombinant PTPRD phosphatase
Experimental: (§2) Phosphatase assays: Data for each assay type (3 wells/experimental condition, read using a Spectromax plate reader) was plotted vs time, and results derived from the slopes of linear regions were reported from triplicate independent experiments.
(§3) For assays of compound ligands that were likely pseudo-irreversible, 18 min preincubations were also added. For work determining the effect of flavonoids on pNPP hydrolysis, a 96 well half-area plate was prepared by first filling each well to be tested with 18 μL of 50 μM pNPP and 25 uL of running buffer, and 2 μL of DMSO containing the desired concentration of flavonoid and/or peptide. PTPRD phosphatase was diluted 1:50 in a dilution buffer.

[5] = biological target: PTPRF (Homo sapiens, UniProt P10586); assay: pNPP hydrolysis by recombinant PTPRF phosphatase
Experimental: as §2, §3

[6] = tested on: wildtype C57BL/6J or PTPRD knockout mice
[7] = Table 4, mean (SEM) of three independent experiments, * = instability, no valid triplicate
[8] = untitled table after Table 4, mean, SEM in wrapped line
[9] = PTPRD IC50, Table 4, mean (SEM) of three independent experiments, * = instability, no valid triplicate
[10] = PTPRD IC50, untitled table after Table 4, mean, SEM in wrapped line, compounds with PTPRD IC50 <5 μM
[11] = PTPRF IC50, Table 4, mean (SEM) of three independent experiments, * = instability, no valid triplicate
[12] = PTPRF IC50, untitled table after Table 4, mean, SEM in wrapped line

PTPRF, sequence (P10586 30-1907, species assumed): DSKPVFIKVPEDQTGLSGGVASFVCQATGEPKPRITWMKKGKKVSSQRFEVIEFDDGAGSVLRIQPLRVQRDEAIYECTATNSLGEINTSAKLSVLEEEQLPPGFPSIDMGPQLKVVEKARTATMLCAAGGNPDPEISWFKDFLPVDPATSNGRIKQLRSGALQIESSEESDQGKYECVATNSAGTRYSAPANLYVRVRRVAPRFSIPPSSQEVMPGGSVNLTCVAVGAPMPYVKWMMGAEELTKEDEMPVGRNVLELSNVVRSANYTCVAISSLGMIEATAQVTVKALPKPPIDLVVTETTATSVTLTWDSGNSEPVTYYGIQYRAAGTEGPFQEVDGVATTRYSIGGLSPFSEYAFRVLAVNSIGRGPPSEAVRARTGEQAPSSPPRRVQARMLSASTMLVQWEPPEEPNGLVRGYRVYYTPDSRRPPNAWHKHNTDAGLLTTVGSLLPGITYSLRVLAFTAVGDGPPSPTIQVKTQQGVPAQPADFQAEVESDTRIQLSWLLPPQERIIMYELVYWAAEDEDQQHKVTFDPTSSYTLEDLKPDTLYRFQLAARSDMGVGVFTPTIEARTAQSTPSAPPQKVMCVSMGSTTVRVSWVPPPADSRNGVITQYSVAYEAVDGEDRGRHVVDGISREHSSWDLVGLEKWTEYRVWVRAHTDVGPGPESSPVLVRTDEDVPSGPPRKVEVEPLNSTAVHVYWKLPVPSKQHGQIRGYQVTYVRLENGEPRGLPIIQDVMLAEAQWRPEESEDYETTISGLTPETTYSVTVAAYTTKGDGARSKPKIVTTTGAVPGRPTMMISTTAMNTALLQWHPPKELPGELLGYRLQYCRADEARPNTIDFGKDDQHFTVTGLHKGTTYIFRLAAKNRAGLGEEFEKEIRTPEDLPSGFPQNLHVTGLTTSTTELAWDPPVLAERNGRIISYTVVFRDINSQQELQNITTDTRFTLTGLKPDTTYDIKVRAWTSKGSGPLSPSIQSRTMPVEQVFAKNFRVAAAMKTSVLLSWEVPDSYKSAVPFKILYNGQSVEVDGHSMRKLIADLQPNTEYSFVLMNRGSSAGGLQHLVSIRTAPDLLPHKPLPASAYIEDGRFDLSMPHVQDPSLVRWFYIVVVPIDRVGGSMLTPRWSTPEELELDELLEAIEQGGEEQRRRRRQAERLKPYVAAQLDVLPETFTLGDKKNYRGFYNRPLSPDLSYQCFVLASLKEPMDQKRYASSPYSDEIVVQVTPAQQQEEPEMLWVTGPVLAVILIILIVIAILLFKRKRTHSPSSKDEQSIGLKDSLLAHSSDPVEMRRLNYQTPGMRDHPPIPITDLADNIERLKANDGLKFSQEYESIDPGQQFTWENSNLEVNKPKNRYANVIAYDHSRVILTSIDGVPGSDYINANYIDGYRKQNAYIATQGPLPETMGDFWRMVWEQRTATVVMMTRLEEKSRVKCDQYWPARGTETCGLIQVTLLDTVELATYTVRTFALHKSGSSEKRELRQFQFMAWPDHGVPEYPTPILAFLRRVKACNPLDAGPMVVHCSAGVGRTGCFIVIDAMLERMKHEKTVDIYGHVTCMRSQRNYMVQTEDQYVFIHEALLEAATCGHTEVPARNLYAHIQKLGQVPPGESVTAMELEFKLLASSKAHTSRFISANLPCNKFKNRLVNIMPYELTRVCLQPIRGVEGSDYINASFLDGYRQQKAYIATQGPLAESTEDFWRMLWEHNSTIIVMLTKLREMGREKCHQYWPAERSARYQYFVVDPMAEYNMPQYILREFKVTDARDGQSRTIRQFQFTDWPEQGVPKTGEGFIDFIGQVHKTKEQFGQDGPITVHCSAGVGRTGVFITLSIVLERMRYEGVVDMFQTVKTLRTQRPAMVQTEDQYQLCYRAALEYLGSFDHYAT
recombinant PTPRD, sequence (P23468 21-1912): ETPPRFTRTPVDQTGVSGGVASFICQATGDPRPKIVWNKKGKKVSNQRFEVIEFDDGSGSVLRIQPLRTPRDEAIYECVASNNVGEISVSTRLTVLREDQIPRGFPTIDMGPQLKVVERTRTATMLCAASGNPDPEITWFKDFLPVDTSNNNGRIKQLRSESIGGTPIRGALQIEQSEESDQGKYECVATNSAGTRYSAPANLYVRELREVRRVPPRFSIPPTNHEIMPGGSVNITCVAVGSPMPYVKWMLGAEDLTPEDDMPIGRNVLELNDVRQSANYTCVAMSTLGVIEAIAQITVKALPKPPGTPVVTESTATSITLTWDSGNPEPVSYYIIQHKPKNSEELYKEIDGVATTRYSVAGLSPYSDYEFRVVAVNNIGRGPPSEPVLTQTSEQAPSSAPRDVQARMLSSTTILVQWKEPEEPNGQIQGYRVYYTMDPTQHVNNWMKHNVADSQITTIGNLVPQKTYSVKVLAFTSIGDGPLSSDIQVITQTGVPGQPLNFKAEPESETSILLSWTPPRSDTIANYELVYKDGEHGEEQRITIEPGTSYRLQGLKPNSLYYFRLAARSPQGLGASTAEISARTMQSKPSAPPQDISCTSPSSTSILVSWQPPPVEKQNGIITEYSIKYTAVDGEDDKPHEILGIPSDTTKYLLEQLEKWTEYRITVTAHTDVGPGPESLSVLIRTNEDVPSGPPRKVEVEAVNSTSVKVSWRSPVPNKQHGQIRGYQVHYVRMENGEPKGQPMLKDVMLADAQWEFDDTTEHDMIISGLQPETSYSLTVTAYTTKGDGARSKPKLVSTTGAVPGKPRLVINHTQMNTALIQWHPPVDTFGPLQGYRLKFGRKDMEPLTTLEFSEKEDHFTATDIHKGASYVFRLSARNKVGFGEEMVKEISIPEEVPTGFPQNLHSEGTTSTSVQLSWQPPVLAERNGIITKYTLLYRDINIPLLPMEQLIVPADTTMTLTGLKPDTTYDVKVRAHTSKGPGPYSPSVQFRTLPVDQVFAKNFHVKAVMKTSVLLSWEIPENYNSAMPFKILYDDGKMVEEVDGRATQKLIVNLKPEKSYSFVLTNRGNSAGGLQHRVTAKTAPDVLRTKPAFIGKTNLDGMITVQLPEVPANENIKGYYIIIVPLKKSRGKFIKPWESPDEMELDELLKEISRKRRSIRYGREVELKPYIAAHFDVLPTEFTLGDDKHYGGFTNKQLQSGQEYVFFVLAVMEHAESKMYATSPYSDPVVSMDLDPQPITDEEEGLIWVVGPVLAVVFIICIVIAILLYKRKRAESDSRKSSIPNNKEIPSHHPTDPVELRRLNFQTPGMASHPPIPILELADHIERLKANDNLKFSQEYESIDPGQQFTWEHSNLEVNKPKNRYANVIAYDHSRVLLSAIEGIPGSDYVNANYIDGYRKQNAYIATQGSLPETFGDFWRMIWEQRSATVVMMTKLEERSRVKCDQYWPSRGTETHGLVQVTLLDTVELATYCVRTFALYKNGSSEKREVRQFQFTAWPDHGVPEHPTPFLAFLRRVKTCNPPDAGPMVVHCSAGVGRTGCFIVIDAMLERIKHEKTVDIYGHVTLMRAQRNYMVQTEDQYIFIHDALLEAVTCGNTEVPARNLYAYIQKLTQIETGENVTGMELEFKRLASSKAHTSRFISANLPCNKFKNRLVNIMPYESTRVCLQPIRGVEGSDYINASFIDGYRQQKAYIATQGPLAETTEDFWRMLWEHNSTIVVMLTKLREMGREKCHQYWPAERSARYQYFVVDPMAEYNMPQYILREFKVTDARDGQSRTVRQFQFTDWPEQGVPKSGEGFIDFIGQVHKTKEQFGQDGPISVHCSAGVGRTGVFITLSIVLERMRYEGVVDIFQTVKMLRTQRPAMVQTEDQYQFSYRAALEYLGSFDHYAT

Row | SMILES | IC50 [1, 7] | IC50 [1, 8] | IC50 [2, 7] | IC50 [2, 8] | IC50 [3] | IC50 [4, 9] | IC50 [4, 10] | IC50 [5, 11] | IC50 [5, 12] | death (or euthanasia) prior to day 3 ([6]; 400 or 200 mg/kg gavage) | no observed adverse effect level (NOAEL) ([6]; mouse, single dose p.o., based on weight changes, gross pathology, histopathology, cage behaviors)
1 | COc1c(OCCC(C)C)cc2c(c1C=O)CC(O)OC2=O (stereo not shown) [Compound 58, 3-Hydroxy-7-(isopentyloxy)-6-methoxy-1-oxoisochromane-5-carbaldehyde] | 2760 nM | 2760 nM | 51.9 µM | 51.9 µM | 121 µM | 2820 nM | 2820 nM | 3870 nM | 3870 nM |  | 
2 | COc1c(OCC=C(C)C)cc2c(c1C=O)CC(O)OC2=O (stereo not shown) [Compound 59, 3-Hydroxy-6-methoxy-7-(3-methyl-but-2-enyloxy)-1-oxo-isochroman-5-carbaldehyde] | 1800 nM | 1800 nM | 17.8 µM | 17.8 µM | > 100 µM | 3210 nM | 3210 nM | 2460 nM | 2460 nM |  | 
3 | COc1c(OCC2CCC2)cc2c(c1C=O)CC(O)OC2=O (stereo not shown) [Compound 65, 7-Cyclobutylmethoxy-3-hydroxy-6-methoxy-1-oxo-isochroman-5-carbaldehyde] | 3360 nM | 2850 nM |  | 32.7 µM | 24.1 µM |  | 2760 nM | 3030 nM | 4520 nM |  | 
4 | COc1c(OCC2CCCC2)cc2c(c1C=O)CC(O)OC2=O (stereo not shown) [Compound 66, 7-Cyclopentylmethoxy-3-hydroxy-6-methoxy-1-oxo-isochroman-5-carbaldehyde] | 610 nM | 610 nM | 29.3 µM | 29.3 µM | 119 µM |  |  | 1720 nM | 1720 nM | none | 200 mg/kg
